IC50 data for 30 compounds are collected here from US9944645B2, “Imidazotriazines and imidazopyrimidines as kinase inhibitors” (Incyte Holdings Corporation, priority 2006, dated 2018).

The target of the assay is c-Met kinase (h-Met; histidine-tagged c-Met catalytic domain fusion protein) (Homo sapiens (Human), UniProt P08581). Briefly: In Vitro c-Met Kinase Enzyme Assays. It is filed as biochemical. As to conditions: phosphorylation of poly Glu-Tyr, 5 μM ATP, 25 minutes at 30° C. As to the method: Compounds were screened in vitro for their ability to inhibit c-Met kinase activity. […] Briefly, histidine-tagged c-Met catalytic domain fusion protein (Invitrogen, #PV3143) was used for the assay. […] The reaction lasted for 25 minutes at 30° C. After the reaction was completed, the contents of the plates was discarded. Plates were then washed with TBS-T (250 μL/well, 5×) and then blocked with TBS-T containing 1% BSA for 2 hours. The contents of the plates was discarded, and 100 μL (per well) of peroxidase-labeled anti-phospho-tyrosine antibody (Sigma, #A5964) diluted (1:60,000) in 1% BSA containing TBS-T were then added and incubated for 1 hour. Plates were washed with TBS-T ([…], 5×) and followed by the color reaction using 100 μL (1:1 mixture) of H2O2 and tetramethylbenzidine (R&D Systems, #DY999). The reaction was stopped in minutes with 100 μL of 2 N H2SO4. The optical density was measured immediately using a microplate reader at 450 nm with wavelength correction at 540 nm. IC50 values were calculated with the GraphPad Prism software. The linear range (i.e., the time period over which the rate remained equivalent to the initial rate) was determined for the kinase and IC50 determinations were performed within this range.
c-Met kinase (h-Met; histidine-tagged c-Met catalytic domain fusion protein), sequence (P08581 1078-1345): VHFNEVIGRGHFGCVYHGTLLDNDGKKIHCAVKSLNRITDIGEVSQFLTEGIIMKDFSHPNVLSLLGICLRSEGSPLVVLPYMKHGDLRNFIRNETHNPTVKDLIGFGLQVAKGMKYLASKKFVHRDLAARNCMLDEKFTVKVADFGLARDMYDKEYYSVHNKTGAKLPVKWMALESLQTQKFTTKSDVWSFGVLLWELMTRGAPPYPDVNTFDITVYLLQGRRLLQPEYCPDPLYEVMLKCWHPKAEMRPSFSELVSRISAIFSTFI
As a reminder, the IC50 is the midpoint of a concentration-inhibition curve. A higher IC50 goes with a need for much substance. Regarding `CNC(=O)[C@@H](NC(=O)c1ccc(-c2cnc3ncc(C4(c5ccc6ncccc6c5)CC4)n3c2)cn1)C(C)(C)C` [Example 59, N-(1S)-2,2-Dimethyl-1-[(methylamino)carbonyl]propyl-5-[3-(1-quinolin-6-ylcyclopropyl)imidazo[1,2-a]pyrimidin-6-yl]pyridine-2-carboxamide], the IC50 was below 500 nM.

As to `CC(C)(C)[C@H](NC(=O)c1ccc(-c2cnc3ncc(C4(c5ccc6ncccc6c5)CC4)n3c2)cn1)C(=O)NC1CC1` [Example 60, N-(1S)-1-[(Cyclopropylamino)carbonyl]-2,2-dimethylpropyl-5-[3-(1-quinolin-6-ylcyclopropyl)imidazo[1,2-a]pyrimidin-6-yl]pyridine-2-carboxamide], the IC50 is below 500 nM.

Turning to `C[C@H](NC(=O)c1ccc(-c2cnc3ncc(C4(c5ccc6ncccc6c5)CC4)n3c2)cn1)C(=O)N(C)C` [Example 61, N-[(1S)-2-(Dimethylamino)-1-methyl-2-oxoethyl]-5-[3-(1-quinolin-6-ylcyclopropyl)imidazo[1,2-a]pyrimidin-6-yl]pyridine-2-carboxamide], the IC50 is below 500 nM.

The compound `C[C@@H](NC(=O)c1ccc(-c2cnc3ncc(C4(c5ccc6ncccc6c5)CC4)n3c2)cn1)C(=O)N(C)C` [Example 62, N-[(1R)-2-(Dimethylamino)-1-methyl-2-oxoethyl]-5-[3-(1-quinolin-6-ylcyclopropyl)imidazo[1,2-a]pyrimidin-6-yl]pyridine-2-carboxamide] had an IC50 below 500 nM.

In the case of `O=C(COc1ccc(-c2cnc3ncc(C4(c5ccc6ncccc6c5)CC4)n3c2)cc1)N1CCCC1` [Example 63, 6-(1-{6-[4-(2-Oxo-2-pyrrolidin-1-ylethoxy)phenyl]imidazo[1,2-a]pyrimidin-3-yl}cyclopropyl)quinoline], the IC50 was below 500 nM.

For the compound `N#CC1(c2ccc(-c3cnc4ncc(C5(c6ccc7ncccc7c6)CC5)n4c3)cc2)CC1` [Example 64, 1-{4-[3-(1-Quinolin-6-ylcyclopropyl)imidazo[1,2-a]pyrimidin-6-yl]phenyl}cyclopropanecarbonitrile], the IC50 is below 500 nM.

In turn, `CN(C)S(=O)(=O)c1ccc(-c2cnc3ncc(C4(c5ccc6ncccc6c5)CC4)n3c2)cc1` [Example 65, N,N-Dimethyl-4-[3-(1-quinolin-6-ylcyclopropyl)imidazo[1,2-a]pyrimidin-6-yl]benzenesulfonamide] returned an IC50 below 500 nM.

In turn, `COC(=O)NCc1ccc(-c2cnc3ncc(C4(c5ccc6ncccc6c5)CC4)n3c2)cc1F` [Example 66, Methyl 2-fluoro-4-[3-(1-quinolin-6-ylcyclopropyl)imidazo[1,2-a]pyrimidin-6-yl]benzylcarbamate] yielded an IC50 below 500 nM.

In turn, `CN(C)C(=O)NCc1ccc(-c2cnc3ncc(C4(c5ccc6ncccc6c5)CC4)n3c2)cc1F` [Example 67, N′-2-Fluoro-4-[3-(1-quinolin-6-ylcyclopropyl)imidazo[1,2-a]pyrimidin-6-yl]benzyl-N,N-dimethylurea] showed an IC50 below 500 nM.

Turning to `O[C@@H]1CCN(Cc2ccc(-c3cnc4ncc(C5(c6ccc7ncccc7c6)CC5)n4c3)cc2F)C1` [Example 68, (3R)-1-{2-Fluoro-4-[3-(1-quinolin-6-ylcyclopropyl)imidazo[1,2-a]pyrimidin-6-yl]benzyl}pyrrolidin-3-ol], the IC50 is below 500 nM.

Compound `Fc1cc(-c2cnc3ncc(C4(c5ccc6ncccc6c5)CC4)n3c2)ccc1Cn1cccn1` [Example 69, 6-(1-{6-[3-Fluoro-4-(1H-pyrazol-1-ylmethyl)phenyl]imidazo[1,2-a]pyrimidin-3-yl}cyclopropyl)quinoline] had an IC50 below 500 nM.

`O=C1OCCN1Cc1ccc(-c2cnc3ncc(C4(c5ccc6ncccc6c5)CC4)n3c2)cc1F` [Example 70, 3-{2-Fluoro-4-[3-(1-quinolin-6-ylcyclopropyl)imidazo[1,2-a]pyrimidin-6-yl]benzyl}-1,3-oxazolidin-2-one] displayed an IC50 below 500 nM.

As for `CNC(=O)c1ccc(-c2cnc3ncc(Cc4ccc5nccnc5c4)n3n2)cc1F` [Example 71, 2-Fluoro-N-methyl-4-[7-(quinoxalin-6-ylmethyl)imidazo[1,2-b][1,2,4]triazin-2-yl]benzamide], the IC50 is below 500 nM.

In turn, `Cc1nc(-c2cnc3ncc(C4(c5ccc6ncccc6c5)CC4)n3c2)cs1` [Example 73, 6-{1-[6-(2-Methyl-1,3-thiazol-4-yl)imidazo[1,2-a]pyrimidin-3-yl]cyclopropyl}quinoline] registered an IC50 below 500 nM.

The compound `c1cnc2ccc(C3(c4cnc5ncc(-c6cscn6)cn45)CC3)cc2c1` [Example 74, 6-{1-[6-(1,3-Thiazol-4-yl)imidazo[1,2-a]pyrimidin-3-yl]cyclopropyl}quinoline] yielded an IC50 below 500 nM.

As for `CNC(=O)c1ccc(-c2cnc3ncc(C4(c5ccc6ncccc6c5)CC4)n3c2)c(F)c1` [Example 75, 3-Fluoro-N-methyl-4-[3-(1-quinolin-6-ylcyclopropyl)imidazo[1,2-a]pyrimidin-6-yl]benzamide], the IC50 was below 500 nM.

For the compound `O=C(c1ccc(-c2cnc3ncc(C4(c5ccc6ncccc6c5)CC4)n3c2)c(F)c1)N1CC[C@H](O)C1` [Example 76, (3S)-1-{3-Fluoro-4-[3-(1-quinolin-6-ylcyclopropyl)imidazo[1,2-a]pyrimidin-6-yl]benzoyl}pyrrolidin-3-ol], the IC50 is below 500 nM.

Compound `CNC(=O)c1cc(F)c(-c2cnc3ncc(C4(c5ccc6ncccc6c5)CC4)n3c2)cc1F` [Example 77, 2,5-Difluoro-N-methyl-4-[3-(1-quinolin-6-ylcyclopropyl)imidazo[1,2-a]pyrimidin-6-yl]benzamide] displayed an IC50 below 500 nM.

Compound `NC(=O)c1cc(F)c(-c2cnc3ncc(C4(c5ccc6ncccc6c5)CC4)n3c2)cc1F` [Example 78, 2,5-Difluoro-4-[3-(1-quinolin-6-ylcyclopropyl)imidazo[1,2-a]pyrimidin-6-yl]benzamide] registered an IC50 below 500 nM.

Consider `O=C(NC1CC1)c1cc(F)c(-c2cnc3ncc(C4(c5ccc6ncccc6c5)CC4)n3c2)cc1F` [Example 79, N-Cyclopropyl-2,5-difluoro-4-[3-(1-quinolin-6-ylcyclopropyl)imidazo[1,2-a]pyrimidin-6-yl]benzamide], for which the IC50 is below 500 nM.

For `O=C(N[C@H]1CC[C@H](O)CC1)c1cc(F)c(-c2cnc3ncc(C4(c5ccc6ncccc6c5)CC4)n3c2)cc1F` [Example 80, 2,5-Difluoro-N-(trans-4-hydroxycyclohexyl)-4-[3-(1-quinolin-6-ylcyclopropyl)imidazo[1,2-a]pyrimidin-6-yl]benzamide], the IC50 was below 500 nM.

In turn, `O=C1CCCN1c1ccc(-c2cnc3ncc(C4(c5ccc6ncccc6c5)CC4)n3c2)cc1F` [Example 81, 1-{2-Fluoro-4-[3-(1-quinolin-6-ylcyclopropyl)imidazo[1,2-a]pyrimidin-6-yl]phenyl}pyrrolidin-2-one] came in with an IC50 below 2000 nM.

As to `O=C1OCCN1c1ccc(-c2cnc3ncc(C4(c5ccc6ncccc6c5)CC4)n3c2)cc1F` [Example 82, 3-{2-Fluoro-4-[3-(1-quinolin-6-ylcyclopropyl)imidazo[1,2-a]pyrimidin-6-yl]phenyl}-1,3-oxazolidin-2-one], the IC50 is below 500 nM.

Consider `CCOC(=O)N1CCC(n2cc(-c3cnc4ncc(C5(c6ccc7ncccc7c6)CC5)n4c3)cn2)CC1` [Example 83, Ethyl 4-{4-[3-(1-quinolin-6-ylcyclopropyl)imidazo[1,2-a]pyrimidin-6-yl]-1H-pyrazol-1-yl}piperidine-1-carboxylate], for which the IC50 was below 500 nM.

Regarding `CN(C)C(=O)Cn1cc(-c2ccc(-c3cnc4ncc(C5(c6ccc7ncccc7c6)CC5)n4c3)cc2F)cn1` [Example 84, 2-(4-{2-Fluoro-4-[3-(1-quinolin-6-ylcyclopropyl)imidazo[1,2-a]pyrimidin-6-yl]phenyl}-1H-pyrazol-1-yl)-N,N-dimethylacetamide], the IC50 is below 500 nM.

With `CNC(=O)c1ccc(-c2ccc(-c3cnc4ncc(C5(c6ccc7ncccc7c6)CC5)n4c3)cc2F)cn1` [Example 85, 5-{2-Fluoro-4-[3-(1-quinolin-6-ylcyclopropyl)imidazo[1,2-a]pyrimidin-6-yl]phenyl}-N-methylpyridine-2-carboxamide], the IC50 was below 500 nM.

Compound `CN(C)C(=O)c1ccc(-c2ccc(-c3cnc4ncc(C5(c6ccc7ncccc7c6)CC5)n4c3)cc2F)cn1` [Example 86, 5-{2-Fluoro-4-[3-(1-quinolin-6-ylcyclopropyl)imidazo[1,2-a]pyrimidin-6-yl]phenyl}-N,N-dimethylpyridine-2-carboxamide] displayed an IC50 below 500 nM.

`Cn1cc(-c2ccc(-c3cnc4ncc(C5(c6ccc7ncccc7c6)CC5)n4c3)cc2F)cn1` [Example 87, 6-(1-{6-[3-Fluoro-4-(1-methyl-1H-pyrazol-4-yl)phenyl]imidazo[1,2-a]pyrimidin-3-yl}cyclopropyl)quinoline] came in with an IC50 below 500 nM.

Compound `c1cnc2ccc(C3(c4cnc5ncc(-c6cnn(C7CCOC7)c6)cn45)CC3)cc2c1` (stereo not drawn) [Example 88, 6-(1-{6-[1-(Tetrahydrofuran-3-yl)-1H-pyrazol-4-yl]imidazo[1,2-a]pyrimidin-3-yl}cyclopropyl)quinoline] registered an IC50 below 500 nM.

Regarding `c1ccc(CN2CCC(n3cc(-c4cnc5ncc(C6(c7ccc8ncccc8c7)CC6)n5c4)cn3)C2)cc1` (stereo not drawn) [Example 89, 6-(1-{6-[1-(1-Benzylpyrrolidin-3-yl)-1H-pyrazol-4-yl]imidazo[1,2-a]pyrimidin-3-yl}cyclopropyl)quinoline], the IC50 was below 3000 nM.
